From EP1180094B1, “FUSED POLYCYCLIC AMINO ACIDS AS PHARMACEUTICAL AGENTS” (WARNER-LAMBERT COMPANY, priority 1999, dated 2000)

What was measured:
[1] = system: Carrageenan Induced Thermal Hyperalgesia Model (rat); test: Carrageenan induced thermal hyperalgesia model; assay type: in vivo
[2] = system: carrageenan-induced hyperalgesia model; test: Carrageenin-induced hyperalgesia, rat paw pressure test (Randall-Selitto); assay type: in vivo; settings: dosed orally at 30 mg/kg
Experimental: Nociceptive pressure thresholds were measured in the rat paw pressure test using an analgesimeter (Randall-Selitto method: Randall L.O. and Selitto J.J., "A method for measurement of analgesic activity on inflamed tissue," Arch. Int. Pharmacodyn., 1957;4:409-419). Male Sprague-Dawley rats (70-90 g) were trained on this apparatus before the test day. Pressure was gradually applied to the hind paw of each rat and nociceptive thresholds were determined as the pressure (g) required to elicit paw withdrawal. A cutoff point of 250 g was used to prevent any tissue damage to the paw. On the test day, two to three baseline measurements were taken before animals were administered 100 µL of 2% carrageenin by intraplantar injection into the right hind paw. […] Animals were dosed with either gabapentin ([…].), morphine (3 mg/kg, s.c.) or saline at 3.5 hours after carrageenin and nociceptive thresholds were examined at 4, 4.5, and 5 hours postcarrageenin.
(R)-2-Aza-spiro[4.5]decane-4-carboxylic acid hydrochloride was tested in the above carrageenan-induced hyperalgesia model. The compound was dosed orally at 30 mg/kg, and 1 hour postdose gave a percent of maximum possible effect (MPE) of 53%. At 2 hours postdose, it gave only 4.6% of MPE.

SMILES | Carrageenan Induced Thermal Hyperalgesia Model (rat). %MPE* at time postdose @30 mg/Kg p.o. ([1]; 1h postdose) | Carrageenan Induced Thermal Hyperalgesia Model (rat). %MPE* at time postdose @30 mg/Kg p.o. ([1]; 2h postdose) | percent of maximum possible effect (MPE) ([2]; 1 hour postdose) [%] | percent of maximum possible effect (MPE) ([2]; 2 hours postdose) [%]
NCC1(CC(=O)O)Cc2ccccc2C1 [(2-aminomethyl-indan-2-yl)-acetic acid] | 28.5 (1h) %MPE | 10 (2h) %MPE |  | 
Cl.O=C(O)[C@H]1CNCC12CCCCC2 [(R)-2-Aza-spiro[4.5]decane-4-carboxylic acid hydrochloride] |  |  | 53 | 4.6
